Measured values taken from patent US9505713B2, “High-purity sodium p-styrenesulfonate with excellent hue, method for producing the same, poly(sodium p-styrenesulfonate) with excellent hue using the same, and dispersant and synthetic starch for clothing finishing using the poly(sodium p-styrenesulfonate)” (TOSOH ORGANIC CHEMICAL CO., LTD., priority 2012, dated 2016).
Values joined by “and” are separate entries in the source; they are usually repeats but may differ in a detail not shown here. Equal values may be shown once.

How the values were obtained:
Type in all cases: physicochemical
[1] = Measurement of rate of dissolution (solubility in water); conditions: 25° C.
Protocol: (§1) The repose angle is calculated by the following equation. […] A=(180−a)/2 wherein A is the repose angle (degrees) and a is the vertical angle (degrees) of the circular cone. <Measurement of Rate of Dissolution (Solubility in Water)>
In a 20-ml glass sample bottle (27 mm in outer diameter×55 mm in depth), 1.00 g of a sodium p-styrenesulfonate powder (wet powder containing impurities and water) was accurately weighed in a temperature-controlled room of 25° C., and thereafter, 9.00 g of ion-exchanged water was quickly added thereto. Then, the sample bottle was turned upside down with a period of one cycle per second, and the time before dissolution of sodium p-styrenesulfonate was visually judged.

[2] = Measurement of repose angle (fluidity of powder)
Protocol: <Measurement of Repose Angle>
(1) Instruments and Apparatus
1) On a dish, 80 g of a sample is naturally dropped through a funnel of the apparatus.
2) The vertical angle (a) of a circular cone formed on the dish is read with the protractor up to a digit of an integer.
3) This operation is repeated 3 times, and the average value of the vertical angle (a) of the circular cone is determined.
as §1

[3] = Measurement of particle size distribution (laser diffraction/scattering, Microtrack HRA)
Protocol: <Measurement of Particle Size Distribution>
In a 30-ml glass sample bottle, 0.55 g of a sample and 15.0 g of isopropanol were collected, and treated with an ultrasonic washer for 4 minutes while keeping the temperature at 25° C. or less to prepare a slurry. Thereafter, the particle size (median diameter) distribution was measured under the following conditions, using a laser diffraction/scattering type particle size analyzer, Microtrack HRA (manufactured by Nikkiso Co., Ltd.).
Particle transparency=Transp
Particle refractive Index=1.55
Fluid refractive Index=1.38

[4] = Whiteness and yellowness of sodium p-styrenesulfonate powder with color-difference meter; conditions: sodium p-styrenesulfonate crystal powder
Protocol: <Measurement of Whiteness and Yellowness of Sodium p-Styrenesulfonate with Color-Difference Meter>
After a color-difference meter (manufactured by Nippon Denshoku Industries Co., Ltd., C-106) was switched on and stabilized for 30 minutes, a light projection lens (30 mm in diameter) and a sample stand (30 mm in diameter) were attached thereto, and standard adjustment was performed. In a cell, 3.0 g of a sample was weighed, and a weight of 1 kg was placed thereon for 30 seconds. Thereafter, it was confirmed that there were no space and no wrinkles at a bottom portion of the cell. Measurement was made with the color-difference meter to read the whiteness (WI value) and the yellowness (YI value).

[5] = APHA values of 15 wt % aqueous sodium p-styrenesulfonate and poly(sodium p-styrenesulfonate) solutions; conditions: 15 wt % aqueous solution of the monomer
Protocol: <Measurement of APHA values of Aqueous Sodium p-Styrenesulfonate and Aqueous Poly(Sodium p-Styrenesulfonate) Solutions>
After a color-difference meter (manufactured by Nippon Denshoku Industries Co., Ltd., C-106) was switched on and stabilized for 30 minutes, a measuring method was changed to transmission, and a light projection lens (30 mm in diameter) and a sample stand (30 mm in diameter) were attached thereto. A standard white plate and a 0-CAL plate were set, and zero calibration was performed. After water was poured in a square cell and standard calibration was performed, 15 wt % aqueous sodium p-styrenesulfonate solution and 15 wt % aqueous poly(sodium p-styrenesulfonate) solution samples were each transferred into the square cell, and set, followed by reading the APHA values (converted from a calibration curve prepared by using standard solutions having APHA values of 0 to 500).

[6] = before purification, Table 2, 1.00 g in 9.00 g water
[7] = 1.00 g powder in 9.00 g ion-exchanged water, Table 1
[8] = listed as sodium p-styrenesulfonate B
[9] = sodium p-styrenesulfonate powder, Table 1, smaller = better fluidity
[10] = sodium p-styrenesulfonate powder, Table 1
[11] = after purification, Table 2, 1.00 g in 9.00 g water
[12] = listed as sodium p-styrenesulfonate A

| Rate of dissolution (dissolution time in water) [1, 6] | Repose angle ([2]; before purification, Table 2) | Median diameter ([3]; before purification, Table 2) | Small particles less than 10.00 μm ([3]; before purification, Table 2) | Rate of dissolution (dissolution time in water) [1, 7] | Whiteness (WI value) [4] | Yellowness (YI value) [4] | Repose angle [2, 9] | Median diameter [3, 10] | Small particles less than 10.00 μm [3, 10] | Solution APHA value (hue of sodium p-styrenesulfonate) [5] | Structure (SMILES) | also measured |
| --- | --- | --- | --- | --- | --- | --- | --- | --- | --- | --- | --- | --- |
| 200 s | 43 deg | 110 μm and 110.0 μm | 0.0% | – | – | – | – | – | – | – | C=Cc1ccc(S(=O)(=O)[O-])cc1.[Na+] [Example 7, sodium p-styrenesulfonate] | – |
| – | – | – | – | 122 s | 91.0 | 16.0 | 59 deg | 21.3 μm | 12.7% | 200 | C=Cc1ccc(S(=O)(=O)[O-])cc1.[Na+] [Comparative Example 6, sodium p-styrenesulfonate] | Whiteness (WI value) [4, 8]: 91.0; Yellowness (YI value) [4, 8]: 16.0; Solution APHA value (hue of sodium p-styrenesulfonate) [5, 8]: 200 |
| 140 s | 51 deg | 37 μm and 37.0 μm | 3.1% | – | – | – | – | – | – | – | C=Cc1ccc(S(=O)(=O)[O-])cc1.[Na+] [Example 8, sodium p-styrenesulfonate] | – |
| 130 s | 59 deg | 19.8 μm | 13.6% | – | – | – | – | – | – | – | C=Cc1ccc(S(=O)(=O)[O-])cc1.[Na+] [Comparative Example 7, sodium p-styrenesulfonate] | Rate of dissolution (dissolution time in water) [1, 11]: 128 s; Repose angle ([2]; after purification, Table 2): 58 deg; Median diameter ([3]; after purification, Table 2): 22.3 μm; Small particles less than 10.00 μm ([3]; after purification, Table 2): 3.1% |
| – | – | – | – | 130 s | 95.0 | 7.5 | 59 deg | 18.6 μm | 14.3% | 80 | C=Cc1ccc(S(=O)(=O)[O-])cc1.[Na+] [Example 5, sodium p-styrenesulfonate] | – |
| – | – | – | – | 123 s | 93.5 | 12.5 | 59 deg | 21.5 μm | 12.1% | 150 | C=Cc1ccc(S(=O)(=O)[O-])cc1.[Na+] [Comparative Example 3, sodium p-styrenesulfonate] | – |
| 160 s | 47 deg | 63.1 μm | 1.5% | – | – | – | – | – | – | – | C=Cc1ccc(S(=O)(=O)[O-])cc1.[Na+] [Example 6, sodium p-styrenesulfonate] | – |
| – | – | – | – | 132 s | 90.2 | 16.5 | 60 deg | 20.2 μm | 12.6% | 220 | C=Cc1ccc(S(=O)(=O)[O-])cc1.[Na+] [Comparative Example 1, sodium p-styrenesulfonate] | Whiteness (WI value) [4, 12]: 90.2; Yellowness (YI value) [4, 12]: 16.5; Solution APHA value (hue of sodium p-styrenesulfonate) [5, 12]: 220 |
| 127 s | 59 deg | 22.0 μm | 12.5% | – | – | – | – | – | – | – | C=Cc1ccc(S(=O)(=O)[O-])cc1.[Na+] [Comparative Example 9, sodium p-styrenesulfonate] | Rate of dissolution (dissolution time in water) [1, 11]: 130 s; Repose angle ([2]; after purification, Table 2): 58 deg; Median diameter ([3]; after purification, Table 2): 25.1 μm; Small particles less than 10.00 μm ([3]; after purification, Table 2): 1.6% |
| – | – | – | – | – | – | – | – | – | – | – | C=Cc1ccc(S(=O)(=O)[O-])cc1.[Na+] [Example 9, sodium p-styrenesulfonate] | Rate of dissolution (dissolution time in water) [1, 11]: 130 s; Repose angle ([2]; after purification, Table 2): 50 deg; Median diameter ([3]; after purification, Table 2): 48 μm and 48.0 μm; Small particles less than 10.00 μm ([3]; after purification, Table 2): 2.5% |
| – | – | – | – | 155 s | 95.5 | 2.9 | 49 deg | 63 μm and 63.0 μm | 2.0% | 15 | C=Cc1ccc(S(=O)(=O)[O-])cc1.[Na+] [Example 2, sodium p-styrenesulfonate] | – |
| – | – | – | – | 165 s | 95.7 | 5.8 | 46 deg | 81 μm and 81.0 μm | 0.5% | 30 | C=Cc1ccc(S(=O)(=O)[O-])cc1.[Na+] [Example 1, sodium p-styrenesulfonate] | – |
| 270 s | 45 deg | 160 μm and 160.0 μm | 0.0% | – | – | – | – | – | – | – | C=Cc1ccc(S(=O)(=O)[O-])cc1.[Na+] [Comparative Example 8, sodium p-styrenesulfonate] | – |
| – | – | – | – | 126 s | 93.0 | 10.1 | 60 deg | 20.6 μm | 14.3% | 120 | C=Cc1ccc(S(=O)(=O)[O-])cc1.[Na+] [Comparative Example 4, sodium p-styrenesulfonate] | – |
